Laboratory results published in US20260285850A1, “SUBSTITUTED OXAZOLIDINONES AND IMIDAZOLINONES AS HERBICIDES” (FMC CORPORATION, priority 2023, published 2026).

Tests used:
Assay type in all cases: in vivo
[1] = tested on: horseweed (Erigeron canadensis); experiment: Test A postemergence application, visual injury rating 0-100; conditions: Postemergence, 10 days, 0 is no effect, 100 is complete control
Summary of the method: (§1)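 Directed preemergence spray onto seeded soil or postemergence spray onto 2-10 cm plants (loam plus sand); compound carried in surfactant-containing non-phytotoxic solvent. Injury rated by eye after 10 d greenhouse growth; 0 = no effect, 100 = complete control.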

[2] = tested on: oat, wild (wild oat, Avena fatua); experiment: as above; conditions: Postemergence, 10 days, 0 is no effect, 100 is complete control
Summary of the method: as §1

corn (Zea mays) [3] = experiment: as above; conditions: Postemergence, 10 days, 0 is no effect, 100 is complete control
Summary of the method: as §1

[4] = tested on: barnyardgrass (Echinochloa crus-galli); experiment: as above; conditions: Postemergence, 10 days, 0 is no effect, 100 is complete control
Summary of the method: as §1

soybean (Glycine max) [5] = experiment: as above; conditions: Postemergence, 10 days, 0 is no effect, 100 is complete control
Summary of the method: as §1

[6] = tested on: ragweed (common ragweed, Ambrosia artemisiifolia); experiment: as above; conditions: Postemergence, 10 days, 0 is no effect, 100 is complete control
Summary of the method: as §1

[7] = tested on: green foxtail (Setaria viridis); experiment: as above; conditions: Postemergence, 10 days, 0 is no effect, 100 is complete control
Summary of the method: as §1

[8] = tested on: blackgrass (Alopecurus myosuroides); experiment: as above; conditions: Postemergence, 10 days, 0 is no effect, 100 is complete control
Summary of the method: as §1

[9] = tested on: wheat (Triticum aestivum); experiment: as above; conditions: Postemergence, 10 days, 0 is no effect, 100 is complete control
Summary of the method: as §1

[10] = tested on: palmer (palmer amaranth, palmer pigweed, Amaranthus palmeri); experiment: as above; conditions: Postemergence, 10 days, 0 is no effect, 100 is complete control
Summary of the method: as §1

kochia (Bassia scoparia) [11] = experiment: as above; conditions: Postemergence, 10 days, 0 is no effect, 100 is complete control
Summary of the method: as §1

[12] = tested on: ryegrass, Italian (italian ryegrass, Lolium multiflorum); experiment: as above; conditions: Postemergence, 10 days, 0 is no effect, 100 is complete control
Summary of the method: as §1

[13] = tested on: galium (catchweed bedstraw, Galium aparine); experiment: as above; conditions: Postemergence, 10 days, 0 is no effect, 100 is complete control
Summary of the method: as §1

[14] = tested on: sedge, umbrella (small-flower umbrella sedge, Cyperus difformis); experiment: Test B flooded paddy test, visual plant response rating 0-100; conditions: 250 g ai/ha, Flood, applied to paddy water, evaluated after 13 days
Summary of the method: (§2)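 Plants were grown to the 2-leaf stage, then pots were flooded to 3 cm above the soil and compound was applied directly to the paddy water, with that depth kept throughout.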

[15] = tested on: ducksalad (Heteranthera limosa); experiment: as above; conditions: 250 g ai/ha, Flood, applied to paddy water, evaluated after 13 days
Summary of the method: as §2

rice (Oryza sativa) = experiment: as above; conditions: 250 g ai/ha, Flood, applied to paddy water, evaluated after 13 days
Summary of the method: as §2

[16] = tested on: barnyardgrass (Echinochloa crusgalli); experiment: as above; conditions: 250 g ai/ha, Flood, applied to paddy water, evaluated after 13 days
Summary of the method: as §2

[17] = tested on: oat, wild (wild oat, Avena fatua); experiment: Test A preemergence soil spray, visual injury rating 0-100; conditions: 10 days, 0 = no effect, 100 = complete control
Summary of the method: as §1

corn (Zea mays) [18] = experiment: as above; conditions: 10 days, 0 = no effect, 100 = complete control
Summary of the method: as §1

[19] = tested on: barnyardgrass (Echinochloa crus-galli); experiment: as above; conditions: 10 days, 0 = no effect, 100 = complete control
Summary of the method: as §1

soybean (Glycine max) [20] = experiment: as above; conditions: 10 days, 0 = no effect, 100 = complete control
Summary of the method: as §1

[21] = tested on: ragweed (common ragweed, Ambrosia artemisiifolia); experiment: as above; conditions: 10 days, 0 = no effect, 100 = complete control
Summary of the method: as §1

[22] = tested on: green foxtail (Setaria viridis); experiment: as above; conditions: 10 days, 0 = no effect, 100 = complete control
Summary of the method: as §1

[23] = tested on: blackgrass (Alopecurus myosuroides); experiment: as above; conditions: 10 days, 0 = no effect, 100 = complete control
Summary of the method: as §1

[24] = tested on: wheat (Triticum aestivum); experiment: as above; conditions: 10 days, 0 = no effect, 100 = complete control
Summary of the method: as §1

[25] = tested on: palmer (palmer amaranth, palmer pigweed, Amaranthus palmeri); experiment: as above; conditions: 10 days, 0 = no effect, 100 = complete control
Summary of the method: as §1

kochia (Bassia scoparia) [26] = experiment: as above; conditions: 10 days, 0 = no effect, 100 = complete control
Summary of the method: as §1

[27] = tested on: ryegrass, Italian (italian ryegrass, Lolium multiflorum); experiment: as above; conditions: 10 days, 0 = no effect, 100 = complete control
Summary of the method: as §1

CC(C)OC(=O)C1C=CC(NC(=O)C2(C)CN(c3cc(Cl)cc(Cl)c3)C(=O)O2)C1 (stereo not shown) [Compound 43]
70: Galium plant response rating (0 to 100 scale) ([13]; 125 g ai/ha) | Galium plant response rating (0 to 100 scale) ([13]; 500 g ai/ha)
30: Ragweed plant response rating (0 to 100 scale) ([21]; 125 g ai/ha)
60: Horseweed plant response rating (0 to 100 scale) ([1]; 125 g ai/ha) | Ragweed plant response rating (0 to 100 scale) ([6]; 125 g ai/ha) | Soybean plant response rating (0 to 100 scale) (soybean (Glycine max) [20]; 500 g ai/ha)
80: Horseweed plant response rating (0 to 100 scale) ([1]; 500 g ai/ha) | Soybean plant response rating (0 to 100 scale) (soybean (Glycine max) [5]; 125 g ai/ha) | Soybean plant response rating (0 to 100 scale) (soybean (Glycine max) [5]; 500 g ai/ha) | Ragweed plant response rating (0 to 100 scale) ([6]; 500 g ai/ha) | Kochia plant response rating (0 to 100 scale) (kochia (Bassia scoparia) [11]; 125 g ai/ha) | Kochia plant response rating (0 to 100 scale) (kochia (Bassia scoparia) [11]; 500 g ai/ha) | Corn plant response rating (0 to 100 scale) (corn (Zea mays) [18]; 125 g ai/ha) | Ragweed plant response rating (0 to 100 scale) ([21]; 500 g ai/ha) | Kochia plant response rating (0 to 100 scale) (kochia (Bassia scoparia) [26]; 125 g ai/ha)
40: Soybean plant response rating (0 to 100 scale) (soybean (Glycine max) [20]; 125 g ai/ha)
20: Plant response rating, Rice (0 to 100 scale, 0 is no effect and 100 is complete control) (rice (Oryza sativa))
100: Corn plant response rating (0 to 100 scale) (corn (Zea mays) [3]; 125 g ai/ha) | Corn plant response rating (0 to 100 scale) (corn (Zea mays) [3]; 500 g ai/ha) | Barnyardgrass plant response rating (0 to 100 scale) ([4]; 125 g ai/ha) | Barnyardgrass plant response rating (0 to 100 scale) ([4]; 500 g ai/ha) | Blackgrass plant response rating (0 to 100 scale) ([8]; 125 g ai/ha) | Blackgrass plant response rating (0 to 100 scale) ([8]; 500 g ai/ha) | Amaranth, Palmer / Pigweed, Palmer plant response rating (0 to 100 scale) ([10]; 125 g ai/ha) | Amaranth, Palmer / Pigweed, Palmer plant response rating (0 to 100 scale) ([10]; 500 g ai/ha) | Barnyardgrass plant response rating (0 to 100 scale) ([19]; 125 g ai/ha) | Barnyardgrass plant response rating (0 to 100 scale) ([19]; 500 g ai/ha) | Foxtail, Green plant response rating (0 to 100 scale) ([22]; 500 g ai/ha) | Blackgrass plant response rating (0 to 100 scale) ([23]; 500 g ai/ha) | Amaranth, Palmer plant response rating (0 to 100 scale) ([25]; 125 g ai/ha) | Amaranth, Palmer plant response rating (0 to 100 scale) ([25]; 500 g ai/ha)
95: Plant response rating, Sedge, Umbrella (0 to 100 scale, 0 is no effect and 100 is complete control) [14]
85: Plant response rating, Barnyardgrass (0 to 100 scale, 0 is no effect and 100 is complete control) [16]
90: Oat, Wild plant response rating (0 to 100 scale) ([2]; 125 g ai/ha) | Oat, Wild plant response rating (0 to 100 scale) ([2]; 500 g ai/ha) | Foxtail, Green plant response rating (0 to 100 scale) ([7]; 125 g ai/ha) | Foxtail, Green plant response rating (0 to 100 scale) ([7]; 500 g ai/ha) | Wheat plant response rating (0 to 100 scale) ([9]; 125 g ai/ha) | Wheat plant response rating (0 to 100 scale) ([9]; 500 g ai/ha) | Ryegrass, Italian plant response rating (0 to 100 scale) ([12]; 125 g ai/ha) | Ryegrass, Italian plant response rating (0 to 100 scale) ([12]; 500 g ai/ha) | Plant response rating, Ducksalad (0 to 100 scale, 0 is no effect and 100 is complete control) [15] | Oat, Wild plant response rating (0 to 100 scale) ([17]; 125 g ai/ha) | Oat, Wild plant response rating (0 to 100 scale) ([17]; 500 g ai/ha) | Corn plant response rating (0 to 100 scale) (corn (Zea mays) [18]; 500 g ai/ha) | Foxtail, Green plant response rating (0 to 100 scale) ([22]; 125 g ai/ha) | Blackgrass plant response rating (0 to 100 scale) ([23]; 125 g ai/ha) | Wheat plant response rating (0 to 100 scale) ([24]; 125 g ai/ha) | Wheat plant response rating (0 to 100 scale) ([24]; 500 g ai/ha) | Kochia plant response rating (0 to 100 scale) (kochia (Bassia scoparia) [26]; 500 g ai/ha) | Ryegrass, Italian plant response rating (0 to 100 scale) ([27]; 125 g ai/ha) | Ryegrass, Italian plant response rating (0 to 100 scale) ([27]; 500 g ai/ha)
